Test system: HCT116 tumor cells (colon tumor cells)
Experiment: HCT116 colon tumor model, anti-alpha5beta1 + chemotherapy
Format: in vivo, HRLN female nu/nu mice
Conditions: chemotherapeutic agent by itself
Procedure: HRLN female nu/nu mice were injected with 5×10^6 HCT116 tumor cells (colon tumor cells) subcutaneously in their flanks. Tumors were allowed to grow until they reach an average size of 80-120 cubic mm before treatment with therapies. Tumor bearing mice were then divided into 4 groups:
Tumor volume measurement was carried out twice a week using a standard caliper measurement method. The hamster anti-mouse integrin alpha5 mab, known as 10E7, was generated at Genentech. Body weight was measured 5 times over 2 days then twice per week (biwk) to the end of the study. The endpoint of the experiment was a tumor volume of 1.5 gms or 60 days, whichever came first. Some responders were followed longer. When the endpoint was reached, the animals were euthanized. The dosing volume was 10 mL/kg (0.200 ml/20 g mouse), which volume was adjusted for body weight. 10E7 was administered 30 minutes before irinotecan administration. For animals showing complete regression (CR), tissues at the site of tumor implantation were collected at endpoint and preserved in formulin followed by 70% EtOH for later study. All samples to be frozen were placed in a cryomold, wrapped in foil & snap frozen on liquid nitrogen.

CCc1c2c(nc3ccc(OC(=O)N4CCC(N5CCCCC5)CC4)cc13)-c1cc3c(c(=O)n1C2)COC(=O)[C@]3(O)CC [irinotecan]
vascular damage: did not cause significant vascular damage
